Structures are written as SMILES. “Also recorded” adds a separate entry of the source. Like-named read-outs stand apart in the source and are kept apart here.

For series [1], the system named is mice. Nature of the series: Hot water tail-flick cumulative dose-response (s.c.). Particulars: Mus musculus, sc, 0.5 h, cumulative s.c. doses 1-30 mg/kg, latency 30 min after each dose. It counts as in vivo.
The subject of series [2] is mice. Nature of the series: Hot water tail-flick tolerance evaluation, daily dosing. It counts as in vivo. Particulars: for antinociceptive effects over days of daily administration (tolerance): 7 mg/kg i.p. daily, days 1, 3, 5, 6, mice; for antinociceptive effects on day 6 challenge after daily vehicle: daily vehicle treated mice challenged on day 6.
Series [3] deals with Sprague Dawley rats. Nature of the series: Conditioned place preference assay. Particulars: i.p.
Series [4] relates to mice. Nature of the series: Accelerating rotarod performance assay. Particulars: 10 mg/kg i.p.; compared to kurkinorin and vehicle. Background: Falling from the rotarod earlier than controls is read as motor impairment.
The target of series [5] is T1, κ opioid receptor (KOR) (Homo sapiens, UniProt P41145).
T1 construct: expressed in transfected cells
Nature of the series: cell-based. The format is cell-based.

Series [6] concerns mice. Nature of the series: Centrally mediated antinociceptive effects (tail-flick), i.p. doses, 10 s cutoff. The format is in vivo.
Series [7] concerns the target T2, μ opioid receptor (MOR) (Homo sapiens, UniProt P35372).
T2 construct: expressed in transfected cells
The experiment in a line: cell-based. The format is cell-based.

T2 sequence (P35372 whole entry): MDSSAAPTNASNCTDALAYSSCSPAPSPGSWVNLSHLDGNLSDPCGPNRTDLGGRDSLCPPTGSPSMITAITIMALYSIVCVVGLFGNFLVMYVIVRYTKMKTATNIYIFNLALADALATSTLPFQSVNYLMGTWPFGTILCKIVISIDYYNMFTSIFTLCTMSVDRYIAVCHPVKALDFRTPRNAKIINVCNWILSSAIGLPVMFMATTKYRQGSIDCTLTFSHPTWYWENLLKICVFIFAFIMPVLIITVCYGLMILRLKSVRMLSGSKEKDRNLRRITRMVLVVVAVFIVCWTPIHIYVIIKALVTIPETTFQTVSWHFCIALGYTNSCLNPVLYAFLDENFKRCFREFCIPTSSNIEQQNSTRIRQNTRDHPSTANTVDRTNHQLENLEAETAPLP
T1 sequence (P41145 whole entry): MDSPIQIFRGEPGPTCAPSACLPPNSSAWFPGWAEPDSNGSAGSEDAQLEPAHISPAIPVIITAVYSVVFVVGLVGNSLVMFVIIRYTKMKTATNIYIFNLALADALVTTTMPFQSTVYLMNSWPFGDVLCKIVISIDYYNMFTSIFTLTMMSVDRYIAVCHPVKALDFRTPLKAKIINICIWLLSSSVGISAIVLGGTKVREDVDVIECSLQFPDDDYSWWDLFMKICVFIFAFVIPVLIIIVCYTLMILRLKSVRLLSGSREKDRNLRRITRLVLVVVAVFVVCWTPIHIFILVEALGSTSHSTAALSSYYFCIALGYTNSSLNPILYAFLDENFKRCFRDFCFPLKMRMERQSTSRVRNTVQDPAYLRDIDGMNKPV

For orientation: ED50 means the dose at which the effect has come halfway, by size or by number of responders. Lower therefore signals greater potency. Molecule `CN1CC[C@]23c4c5ccc(O)c4O[C@H]2[C@@H](O)C=C[C@H]3[C@H]1C5` [Morphine, morphine, reference compound] gave an ED50 in series [1] of 9.86 mg/kg. Further, in series [2], the “antinociceptive effects over days of daily administration (tolerance)” value was “significant antinociceptive effects on days 1, 3, and 5 but not day 6”; the “antinociceptive effects on day 6 challenge after daily vehicle” value is recorded as “antinociceptive effects similar to day 1”. In series [3] (5 mg/kg), the conditioned place preference result is “significant place preference”. In series [3] (10 mg/kg), the conditioned place preference result was “significant place preference”. For the same molecule, the “motor coordination (rotarod)” value in series [4] was “significant decrease in motor coordination”.
The term EC50 denotes the concentration giving half of the maximal effect. As for `COC(=O)[C@@H]1C=C(OC(=O)c2ccccc2)C(=O)[C@H]2[C@@]1(C)CC[C@H]1C(=O)O[C@H](c3ccoc3)C[C@]21C` [Compound 5, (2S,4aR,6aR,6aR,10aR,10bR)-Methyl 2-(furan-3-yl)-9-((benzoyl)oxy)-6a,10b-dimethyl-4,10-dioxo-2,4,4a,5,6,6a,7,10,10a,10b-decahydro-1H-benzo[f]isochromene-7-carboxylate], in series [5], the EC50 is more than 10000 nM and the “activity at the KOR” value is listed as “no activity”. Also, the antinociceptive effects result in series [6] (5 and 10 mg/kg i.p., similar to morphine at 10 mg/kg) was “significant antinociceptive effects”. In addition, in series [1], the ED50 was 9.72 mg/kg. Further, in series [2], the “antinociceptive effects over days of daily administration (tolerance)” value is reported as “maintained antinociceptive efficacy from days 1-6” and the “antinociceptive effects on day 6 challenge after daily vehicle” value is “antinociceptive effects similar to day 1”. In addition, the conditioned place preference result in series [3] (5 mg/kg) is “Neither kurkinorin (5) nor herkinorin (2) were significantly different to vehicle”. The conditioned place preference entry in series [3] (10 mg/kg, listed as Kurkinorin) is “significant decrease in preference compared to morphine; also recorded: not significantly different form vehicle”.
As a reminder, the melting point is the temperature, or range, at which the solid turns liquid. Molecule `COC(=O)[C@@H]1C=C(OC(=O)c2cccc(O)c2)C(=O)[C@H]2[C@@]1(C)CC[C@H]1C(=O)O[C@H](c3ccoc3)C[C@]21C` [Table 3 Entry 2, (2S,4aR,6aR,7R,10aR,10bR)-Methyl 2-(furan-3-yl)-9-((3-hydroxybenzoyl)oxy)-6a,10b-dimethyl-4,10-dioxo-2,4,4a,5,6,6a,7,10,10a,10bdecahydro-1H-benzo[f]isochromene-7-carboxylate] returned a melting point of 124 to 126 °C. Further, the EC50 in series [7] (EC50) is 1.3 ± 0.3 nM.
As for `COC(=O)[C@@H]1C[C@H](OC(=O)c2ccccc2)C(=O)[C@H]2[C@@]1(C)CC[C@H]1C(=O)O[C@H](c3ccoc3)C[C@]21C` [Compound 2, herkinorin, reference compound], in series [7], the “Selectivity μ/κ” value was found to be 4.4. In addition, the “selectivity for the MOR over KOR” value in series [7] is listed as 4.4 fold. The EC50 came out at 39 ± 4 nM in series [7] (EC50 ± SEM μ), 42 ± 4 nM in series [7] (Series 1 EC50) and 170 ± 30 nM in series [5] (read-out: EC50 ± SEM κ). The antinociceptive effects entry in series [6] (1, 5, and 10 mg/kg, i.p., 10 s cutoff) was “no significant antinociceptive effects”. Moreover, the conditioned place preference entry in series [3] (5 mg/kg) was “Neither kurkinorin (5) nor herkinorin (2) were significantly different to vehicle”.
As to `COC(=O)[C@@H]1C[C@H](NC(=O)c2ccccc2)C(=O)[C@H]2[C@@]1(C)CC[C@H]1C(=O)O[C@H](c3ccoc3)C[C@]21C` [Compound 3, reference compound], the “Selectivity μ/κ” value in series [7] is given as >3 000. Moreover, the results for the EC50 in series [7] (EC50 ± SEM μ) and in series [5] were 3 ± 0.4 nM and more than 10000 nM, respectively.
The molecule `COC(=O)[C@@H]1C=C(OC(=O)c2ccc(O)cc2)C(=O)[C@H]2[C@@]1(C)CC[C@H]1C(=O)O[C@H](c3ccoc3)C[C@]21C` [Table 3 Entry 3, (2S,4aR,6aR,7R,10aR,10bR)-Methyl 2-(furan-3-yl)-9-((4-hydroxybenzoyl)oxy)-6a,10b-dimethyl-4,10-dioxo-2,4,4a,5,6,6a,7,10,10a,10b-decahydro-1H-benzo[f]isochromene-7-carboxylate] had a melting point of 136 to 139 °C. In series [7] (EC50), this molecule registered an EC50 of 0.83 ± 0.04 nM.

Values taken from US10125129B2 (priority 2016, dated 2018).
